From PubChem BioAssay (NCI)
Values joined by “and” are separate entries in the source; they are usually repeats but may differ in a detail not shown here. Equal values may be shown once.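 Cultured in 96-well plates, cells were exposed to test compound for 48 hours across five concentrations. Here, GI50 denotes the concentration required for 50% inhibition of growth. TGI denotes the concentration required for complete inhibition of growth.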

Key:
Assay in all cases: inhibition of tumour cell growth, NCI panel, 48 h
ACHN renal = system: ACHN renal
HT29 colon = system: HT29 colon
MOLT-4 leukemia = system: MOLT-4 leukemia
NCI/ADR-RES ovarian = system: NCI/ADR-RES ovarian
OVCAR-3 ovarian = system: OVCAR-3 ovarian
PC-3 prostate = system: PC-3 prostate
RPMI-8226 leukemia = system: RPMI-8226 leukemia
RXF 393 renal = system: RXF 393 renal
SF-295 CNS = system: SF-295 CNS
UACC-257 melanoma = system: UACC-257 melanoma

| Structure (SMILES) | GI50 (ACHN renal) | TGI (ACHN renal) | GI50 (HT29 colon) | TGI (HT29 colon) | GI50 (MOLT-4 leukemia) | TGI (MOLT-4 leukemia) | GI50 (NCI/ADR-RES ovarian) | TGI (NCI/ADR-RES ovarian) | GI50 (OVCAR-3 ovarian) | TGI (OVCAR-3 ovarian) | GI50 (PC-3 prostate) | TGI (PC-3 prostate) | GI50 (RPMI-8226 leukemia) | TGI (RPMI-8226 leukemia) | GI50 (RXF 393 renal) | TGI (RXF 393 renal) | GI50 (SF-295 CNS) | TGI (SF-295 CNS) | GI50 (UACC-257 melanoma) | TGI (UACC-257 melanoma) |
| --- | --- | --- | --- | --- | --- | --- | --- | --- | --- | --- | --- | --- | --- | --- | --- | --- | --- | --- | --- | --- |
| COc1cc2nccc(Oc3ccc(NC(=O)C4(C(=O)Nc5ccc(F)cc5)CC4)cc3)c2cc1OC | > 10 µM and 3.88 µM | > 10 µM and 46.3 µM | 7.71 µM and 2.74 µM | > 10 µM and 20.4 µM | > 10 µM and 3.44 µM | > 59.1 µM | > 10 µM and 3.43 µM | > 100 µM | > 10 µM and 6.03 µM | > 10 µM and 54 µM | > 10 µM and 3.42 µM | > 100 µM | > 10 µM and 4.09 µM | > 57.7 µM | > 10 µM and 2.17 µM | > 10 µM and 6.93 µM | 406 nM and 289 nM | > 10 µM and 4.95 µM | > 10 µM and 4.92 µM | > 74.7 µM |
| O=C(c1ccccc1)c1ccc(N2C(=O)C3C4c5ccccc5C(/C=C/C(=O)c5ccccn5)(c5ccccc54)C3C2=O)cc1 (stereo unspecified) | 2.07 µM | 4.64 µM | 2.92 µM | > 100 µM | 2.29 µM | > 100 µM | 2.68 µM | 12.8 µM | 1.83 µM | 3.85 µM | 3.74 µM | > 100 µM | 2.49 µM | 53.3 µM | 1.56 µM | 3.07 µM | 2030 nM | 5.07 µM | 2.44 µM | 46.6 µM |
| O=C1COc2c(CCNCCN(C(=O)CCNCCc3ccc(Cl)c(Cl)c3)C3CCCCC3)ccc(O)c2N1 | 15.2 µM | 29.1 µM | 16.7 µM | 33.8 µM | 15.8 µM | 34.5 µM | > 100 µM | > 100 µM | 16.8 µM | 32.1 µM | 16 µM | 30.3 µM | 14.5 µM | 33.8 µM | 14.8 µM | 30.7 µM | 15700 nM | 30.8 µM | 16.9 µM | 33 µM |
| Nc1ccc(N)c2c1C(=O)c1cccc([N+](=O)[O-])c1C2=O | 1.93 µM | > 100 µM | 5.6 µM | > 100 µM | 8.33 µM | > 91.4 µM | 4.52 µM | > 100 µM | 5.19 µM | > 100 µM | 15.6 µM | > 100 µM | 2.82 µM | > 100 µM | 7.16 µM | 54.9 µM | 776 nM | > 100 µM | 0.784 µM |  |
| COC(=O)c1ccccc1NCc1cc(O)ccc1O |  | 29.8 µM |  | 44.2 µM |  | 76.9 µM |  | 62.5 µM |  | 32.5 µM |  | 33.6 µM |  | 96.9 µM |  | 30.3 µM |  | 33.3 µM |  | 31.2 µM |
| c1csc(-c2[nH]nc3c2CCc2ccccc2-3)c1 | 18.1 µM | 85 µM | 15.6 µM | 42.6 µM | 14.9 µM | 53.8 µM | 17.7 µM | 49.3 µM | 3.35 µM | 19.7 µM | 12.5 µM | 37.5 µM | 15.6 µM | 55.4 µM | 16.9 µM | 37.4 µM | 16400 nM | 38.7 µM | 19.8 µM | 49.1 µM |
| Cc1c(N)nc(C2CC(=O)N2CC(N)C(N)=O)nc1C(=O)NC(C(=O)NC(C)C(O)C(C)C(=O)NC(C(=O)NCCc1nc(-c2nc(C(=O)NCCNCC(C)O)cs2)cs1)C(C)O)C(OC1OC(CO)C(O)C(O)C1OC1OC(CO)C(O)C(OC(N)=O)C1O)c1cnc[nH]1 (stereo unspecified) | 0.135 µM | 3.85 µM and 1.2 µM | 33.1 µM | 50 µM and > 100 µM | 4.23 µM | 50 µM and 6.66 µM |  | 50 µM | 1.63 µM | 20.6 µM and > 55 µM |  | > 50 µM | > 50 µM | > 50 µM |  | 0.425 µM | 460 nM | 12.1 µM and 15.7 µM | 6.2 µM | 49.4 µM |
| COC(=O)/C(=C/c1ccc(OC)cc1)c1cc(OC)c(OC)c(OC)c1 |  | > 100 µM |  | > 74.9 µM |  | > 97.5 µM |  | > 100 µM |  | 2.63 µM |  | > 100 µM |  | 69.5 µM |  | 3.38 µM |  | 8.02 µM |  | > 84.3 µM |
| O=C1OC(c2ccccc2)=N/C1=C\c1ccc(N(CCCl)CCCl)cc1 |  | > 100 µM |  | > 100 µM |  | > 79.9 µM |  | > 100 µM |  | > 100 µM |  | > 100 µM |  | > 100 µM |  | > 100 µM |  | > 100 µM |  | > 100 µM |
| Cn1c(=O)c(Oc2ccc(F)cc2F)cc2cnc(NC3CCC(O)CC3)nc21 (stereo unspecified) | > 25 µM | > 25 µM | > 25 µM | > 25 µM | > 25 µM | > 25 µM | > 25 µM | > 25 µM | > 25 µM | > 25 µM | > 25 µM | > 25 µM | > 25 µM | > 25 µM | > 25 µM | > 25 µM | > 25000 nM | > 25 µM | > 25 µM | > 25 µM |
